The target of assay [1] is T1, SMYD3 (Homo sapiens (Human), UniProt Q9H7B4). Briefly: SMYD3 biochemical assay (SMYD3 enzyme assay on MEKK2 protein substrate, 3H-SAM scintillation proximity assay). As to conditions: read-out: SMYD3 Biochem IC50. In a few lines: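 Detection used scintillation proximity beads to capture ³H-methylated GST-MEKK2 after quench with 100 uM final cold SAM. The reaction was started by SAM/MEKK2 addition after a 30 min RT compound–enzyme preincubation. Enzyme was tag-free full-length human SMYD3 from E. coli, in buffer of 25 mM Tris-Cl pH 8.0, 1 mM TCEP, 0.005% BSG, 0.005% Tween 20.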

Assay [2] addresses T1, SMYD3. Briefly: SMYD3 cell assay (Trimethyl-MEKK2 In-Cell Western in 293T/17 cells transfected with MEKK2-flag and SMYD3). Type of assay: cell-based. In a few lines:
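Methanol-fixed cells stained in-cell Western for trimethyl-MEKK2 and anti-flag. Ratio-based % inhibition against DMSO and background controls; IC50 by non-linear regression, triplicate wells.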

Setting [3] is: Table 3A, average of n = 1 to n = 50.
[4] abbreviates: Table 3A, average of n = 1 to n = 50, read-out: SMYD3 cell IC50.

Structures can show the parent of a compound that is named as a salt.

As a reminder, the IC50 is the concentration that gives 50% inhibition.

T1 sequence (Q9H7B4 whole entry): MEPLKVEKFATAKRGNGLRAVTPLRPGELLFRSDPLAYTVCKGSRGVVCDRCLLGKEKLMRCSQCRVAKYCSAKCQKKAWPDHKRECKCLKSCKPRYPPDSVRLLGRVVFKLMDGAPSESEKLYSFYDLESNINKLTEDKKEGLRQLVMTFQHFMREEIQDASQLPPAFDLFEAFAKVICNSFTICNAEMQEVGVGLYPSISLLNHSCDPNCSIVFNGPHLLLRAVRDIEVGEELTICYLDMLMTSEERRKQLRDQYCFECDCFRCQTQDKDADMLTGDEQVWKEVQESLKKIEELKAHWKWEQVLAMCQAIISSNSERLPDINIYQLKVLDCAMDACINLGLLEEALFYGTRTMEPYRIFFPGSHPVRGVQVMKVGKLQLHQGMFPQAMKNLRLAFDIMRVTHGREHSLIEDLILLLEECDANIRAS

Take `N[C@H]1CC[C@H](S(=O)(=O)N2[C@@H]3CC[C@H]2C[C@@H](NC(=O)c2ccc4c(c2)OC(F)(F)O4)C3)CC1` [compound 623, N-((1R,3R,5S)-8-(((1r,4R)-4-aminocyclohexyl)sulfonyl)-8-azabicyclo[3.2.1]octan-3-yl)-2,2-difluorobenzo[d][1,3]dioxole-5-carboxamide]: the IC50 in assay [1] (setting [3]) stood at 0.136 µM; in assay [2] (setting [4]), 0.896 µM.

Consider `CC(NC(=O)c1cc2c(cc1Cl)NC(=O)C2)C1CCN(C(=O)[C@H](C)N)CC1` (stereo partly drawn) [Cpd. No. 490, N-(1-(1-((S)-2-aminopropanoyl)piperidin-4-yl)ethyl)-6-chloro-2-oxoindoline-5-carboxamide], for which the IC50 was 0.43 µM in assay [1] and over 40 µM in assay [2] (read-out: SMYD3 Cell IC50).

Take `NC1CCN(S(=O)(=O)N2[C@@H]3CC[C@H]2C[C@@H](NC(=O)c2cc4c(cc2Cl)NC(=O)C4)C3)CC1` [compound 579, N-((1R,3r,5S)-8-((4-aminopiperidin-1-yl)sulfonyl)-8-azabicyclo[3.2.1]octan-3-yl)-6-chloro-2-oxoindoline-5-carboxamide]: the values for the half-inhibitory concentration (IC50) in assay [1] (setting [3]) and in assay [2] (setting [4]) were 0.00081 µM and 1.13 µM, respectively.

In the case of `NC1CCN(S(=O)(=O)N2[C@@H]3CC[C@H]2C[C@@H](NC(=O)c2cc(C4CC4)no2)C3)CC1` [compound 644, N-((1R,3r,5S)-8-((4-aminopiperidin-1-yl)sulfonyl)-8-azabicyclo[3.2.1]octan-3-yl)-3-cyclopropylisoxazole-5-carboxamide], the 50% inhibitory concentration (IC50) in assay [1] (setting [3]) was determined as 0.0185 µM; in assay [2] (setting [4]), 0.257 µM.

As to `C[C@H]1C[C@@H](NC(=O)c2ccc3c(c2)CC(=O)N3)CCN1S(=O)(=O)N1CCC(N)CC1` [compound 580, N-((2S,4S)-1-((4-aminopiperidin-1-yl)sulfonyl)-2-methylpiperidin-4-yl)-2-oxoindoline-5-carboxamide], the IC50 in assay [1] (setting [3]) was 0.0009 µM; in assay [2] (setting [4]), 1.64 µM.

Regarding `NC1CCN(S(=O)(=O)N2[C@@H]3CC[C@H]2C[C@@H](NC(=O)c2ccc4c(c2)NC(=O)CO4)C3)CC1` [compound 609, N-((1R,3r,5S)-8-(4-aminopiperidin-1-ylsulfonyl)-8-aza-bicyclo[3.2.1]octan-3-yl)-3-oxo-3,4-dihydro-2H-benzo[b][1,4]oxazine-6-carboxamide Hydrochloride], the IC50 in assay [1] (setting [3]) was 0.0237 µM; in assay [2] (setting [4]), 3.7 µM.

In the case of `N[C@H]1CC[C@H](C(=O)N2[C@@H]3CC[C@H]2C[C@@H](NC(=O)c2ccc4c(c2)CC(=O)N4)C3)CC1` [compound 638, N-((1R,3R,5S)-8-((1r,4R)-4-aminocyclohexane-1-carbonyl)-8-azabicyclo[3.2.1]octan-3-yl)-2-oxoindoline-5-carboxamide], the half-maximal inhibitory concentration (IC50) in assay [1] (setting [3]) was 0.962 µM; in assay [2] (setting [4]) it was at least 10 µM.

For `O=C1Cc2cc(C(=O)N[C@H]3C[C@H]4CC[C@@H](C3)N4S(=O)(=O)C[C@@H]3CCCNC3)c(Cl)cc2N1` [compound 600, 6-chloro-2-oxo-N-((1R,3R,5S)-8-((((R)-piperidin-3-yl)methyl)sulfonyl)-8-azabicyclo[3.2.1]octan-3-yl)indoline-5-carboxamide], the half-maximal inhibitory concentration (IC50) in assay [1] (setting [3]) came out at 0.00499 µM; in assay [2] (setting [4]), 0.728 µM.

For the compound `CN1C(=O)Cc2cc(C(=O)N[C@H]3C[C@H]4CC[C@@H](C3)N4S(=O)(=O)CC3CCNCC3)c(Cl)cc21` [compound 617, 6-chloro-1-methyl-2-oxo-N-((1R,3r,5S)-8-((piperidin-4-ylmethyl)sulfonyl)-8-azabicyclo[3.2.1]octan-3-yl)indoline-5-carboxamide], the IC50 in assay [1] (setting [3]) was 0.0523 µM; in assay [2] (setting [4]) it was 2.96 µM.

Take `C[C@@H](N)CC(=O)N[C@H]1CC[C@H](NC(=O)c2ccc3c(c2)CC(=O)N3)CC1` [compound 453, N-((1r,4r)-4-((R)-3-aminobutanamido)cyclohexyl)-2-oxoindoline-5-carboxamide]: the IC50 in assay [1] is 0.26 µM; in assay [2] (read-out: SMYD3 Cell IC50), over 40 µM.

For the compound `CC(=O)Nc1ccc(S(=O)(=O)N2CCC(NC(=O)c3cc4c(cc3Cl)NC(=O)C4)CC2)cc1` [compound 641, N-(1-((4-acetamidophenyl)sulfonyl)piperidin-4-yl)-6-chloro-2-oxoindoline-5-carboxamide], the figures for the IC50 in assay [1] (setting [3]) and in assay [2] (setting [4]) were 5.93 µM and at least 10 µM, respectively.

As to `NC1CCN(S(=O)(=O)N2[C@@H]3CC[C@H]2C[C@@H](NC(=O)c2cnn(C4CC4)c2)C3)CC1` [compound 637, N-((1R,3r,5S)-8-((4-aminopiperidin-1-yl)sulfonyl)-8-azabicyclo[3.2.1]octan-3-yl)-1-cyclopropyl-1H-pyrazole-4-carboxamide], the values for the IC50 in assay [1] (setting [3]) and in assay [2] (setting [4]) were 0.839 µM and at least 10 µM, respectively.

Consider `O=C1Cc2cc(C(=O)N[C@H]3C[C@H]4CC[C@@H](C3)N4S(=O)(=O)N3CCC(NCc4ccccc4)CC3)ccc2N1` [Cpd. No. 587, N-[(1R,3r,5S)-8-[4-(benzylamino)piperidine-1-sulfonyl]-8-azabicyclo[3.2.1]octan-3-yl]-2-oxo-2,3-dihydro-1H-indole-5-carboxamide], for which the figures for the concentration for half-maximal inhibition (IC50) in assay [1] (setting [3]) and in assay [2] (setting [4]) were 0.00198 µM and 0.071 µM, respectively.

In the case of `C[C@@H]1CN(S(=O)(=O)N2CCC(N)CC2)CC[C@H]1NC(=O)c1cc2c(cc1Cl)NC(=O)C2` [compound 608, N-((3R,4R)-1-((4-aminopiperidin-1-yl)sulfonyl)-3-methylpiperidin-4-yl)-6-chloro-2-oxoindoline-5-carboxamide], the IC50 in assay [1] (setting [3]) was 0.0214 µM; in assay [2] (setting [4]), 6.24 µM.

Consider `NC1CCN(S(=O)(=O)N2[C@@H]3CC[C@H]2C[C@@H](NC(=O)c2cc4c(cc2Br)NC(=O)C4)C3)CC1` [compound 602, N-((1R,3r,5S)-8-((4-aminopiperidin-1-yl)sulfonyl)-8-azabicyclo[3.2.1]octan-3-yl)-6-bromo-2-oxoindoline-5-carboxamide], for which the IC50 in assay [1] (setting [3]) came out at 0.00712 µM; in assay [2] (setting [4]), 3.73 µM.

Take `O=C1Cc2cc(C(=O)N[C@H]3C[C@H]4CC[C@@H](C3)N4S(=O)(=O)C[C@H]3CCCNC3)c(Cl)cc2N1` [compound 598, 6-chloro-2-oxo-N-((1R,3S,5S)-8-((((S)-piperidin-3-yl)methyl)sulfonyl)-8-azabicyclo[3.2.1]octan-3-yl)indoline-5-carboxamide]: the figures for the IC50 in assay [1] (setting [3]) and in assay [2] (setting [4]) were 0.00412 µM and 1.27 µM, respectively.

With `O=C1Cc2cc(C(=O)N[C@H]3C[C@H]4CC[C@@H](C3)N4S(=O)(=O)CCN3CCCC3)c(Cl)cc2N1` [compound 614, 6-chloro-2-oxo-N-((1R,3r,5S)-8-((2-(pyrrolidin-1-yl)ethyl)sulfonyl)-8-azabicyclo[3.2.1]octan-3-yl)indoline-5-carboxamide], the IC50 was 0.046 µM in assay [1] (setting [3]) and 0.38 µM in assay [2] (setting [4]).

On to `N[C@H]1CC[C@@H](S(=O)(=O)N2[C@@H]3CC[C@H]2C[C@@H](NC(=O)c2ccc4c(c2)CC(=O)N4)C3)CC1` [compound 591, N-((1R,3R,5S)-8-(((1s,4S)-4-aminocyclohexyl)sulfonyl)-8-azabicyclo[3.2.1]octan-3-yl)-2-oxoindoline-5-carboxamide], for which the values for the IC50 in assay [1] and in assay [2] (setting [4]) were 0.00233 µM and 2.31 µM, respectively.

On to `CC(=O)Nc1ccc(S(=O)(=O)N2CCC(NC(=O)c3ccc4c(c3)CC(=O)N4)CC2)cc1` [compound 643, N-(1-((4-acetamidophenyl)sulfonyl)piperidin-4-yl)-2-oxoindoline-5-carboxamide], for which the IC50 in assay [1] (setting [3]) was 16.9 µM; in assay [2] (setting [4]), at least 10 µM.

Regarding `NC1CCN(S(=O)(=O)N2[C@@H]3CC[C@H]2C[C@@H](NC(=O)c2cc4c(cc2F)NC(=O)C4)C3)CC1` [compound 576, N-((1R,3r,5S)-8-((4-aminopiperidin-1-yl)sulfonyl)-8-azabicyclo[3.2.1]octan-3-yl)-6-fluoro-2-oxoindoline-5-carboxamide], the results for the IC50 in assay [1] (setting [3]) and in assay [2] (setting [4]) were 0.00049 µM and 0.525 µM, respectively.

Turning to `CCc1cc(C(=O)N[C@H]2C[C@H]3CC[C@@H](C2)N3S(=O)(=O)N2CCC(N)CC2)ns1` [Cpd. No. 610, N-[(1R,3r,5S)-8-(4-aminopiperidine-1-sulfonyl)-8-azabicyclo[3.2.1]octan-3-yl]-5-ethyl-1,2-thiazole-3-carboxamide Hydrochloride], the IC50 in assay [1] (setting [3]) amounted to 0.0238 µM; in assay [2] (setting [4]), 0.216 µM.

Turning to `CNC1CCN(S(=O)(=O)N2[C@@H]3CC[C@H]2C[C@@H](NC(=O)c2cc4c(cc2Cl)NC(=O)C4)C3)CC1` [compound 586, 6-chloro-N-((1R,3r,5S)-8-((4-(methylamino)piperidin-1-yl)sulfonyl)-8-azabicyclo[3.2.1]octan-3-yl)-2-oxoindoline-5-carboxamide], the IC50 stood at 0.00189 µM in assay [1] (setting [3]) and 0.425 µM in assay [2] (setting [4]).

For the compound `C[C@H]1C[C@@H](NC(=O)c2cc3c(cc2Cl)NC(=O)C3)CCN1S(=O)(=O)N1CCC(N)CC1` [compound 582, N-((2S,4S)-1-((4-aminopiperidin-1-yl)sulfonyl)-2-methylpiperidin-4-yl)-6-chloro-2-oxoindoline-5-carboxamide], the IC50 in assay [1] (setting [3]) came to 0.00098 µM; in assay [2] (setting [4]), 0.814 µM.

As to `CN(C)C1CCN(S(=O)(=O)N2[C@@H]3CC[C@H]2C[C@@H](NC(=O)c2cc4c(cc2Cl)NC(=O)C4)C3)CC1` [compound 594, 6-chloro-N-((1R,3r,5S)-8-((4-(dimethylamino)piperidin-1-yl)sulfonyl)-8-azabicyclo[3.2.1]octan-3-yl)-2-oxoindoline-5-carboxamide], the IC50 in assay [1] turned out to be 0.00346 µM; in assay [2] (setting [4]), 0.301 µM.

Consider `CCc1cc(C(=O)N[C@@H]2CCN(S(=O)(=O)N3CCC(N)CC3)[C@@H](C)C2)ns1` [compound 629, N-((2S,4R)-1-(4-aminopiperidin-1-ylsulfonyl)-2-methylpiperidin-4-yl)-5-ethyl-1,2-thiazole-3-carboxamide], for which the IC50 is 0.326 µM in assay [1] (setting [3]) and 2.08 µM in assay [2] (setting [4]).

Source of the values: patent US10266526B2, “Substituted 1,2,3-triazoles as SMYD inhibitors for treating cancer” (EPIZYME, INC., priority 2014, dated 2019).
